We go through one compound from patent publication US8101760B2, “Glucocorticoid receptor modulator and methods of use” (Eli Lilly and Company, priority 2007, dated 2012).

Data set [1] is described as follows: Bioavailability and plasma exposure after oral administration to test animals. Format: in vivo.
Data set [2] deals with T1, human androgen receptor (AR) (Homo sapiens, UniProt P10275).
T1 construct: expressed in transfected cells; host or cells: HEK293, transient transfection (Fugene), CMV promoter plasmid
T1 sequence (P10275 1-920): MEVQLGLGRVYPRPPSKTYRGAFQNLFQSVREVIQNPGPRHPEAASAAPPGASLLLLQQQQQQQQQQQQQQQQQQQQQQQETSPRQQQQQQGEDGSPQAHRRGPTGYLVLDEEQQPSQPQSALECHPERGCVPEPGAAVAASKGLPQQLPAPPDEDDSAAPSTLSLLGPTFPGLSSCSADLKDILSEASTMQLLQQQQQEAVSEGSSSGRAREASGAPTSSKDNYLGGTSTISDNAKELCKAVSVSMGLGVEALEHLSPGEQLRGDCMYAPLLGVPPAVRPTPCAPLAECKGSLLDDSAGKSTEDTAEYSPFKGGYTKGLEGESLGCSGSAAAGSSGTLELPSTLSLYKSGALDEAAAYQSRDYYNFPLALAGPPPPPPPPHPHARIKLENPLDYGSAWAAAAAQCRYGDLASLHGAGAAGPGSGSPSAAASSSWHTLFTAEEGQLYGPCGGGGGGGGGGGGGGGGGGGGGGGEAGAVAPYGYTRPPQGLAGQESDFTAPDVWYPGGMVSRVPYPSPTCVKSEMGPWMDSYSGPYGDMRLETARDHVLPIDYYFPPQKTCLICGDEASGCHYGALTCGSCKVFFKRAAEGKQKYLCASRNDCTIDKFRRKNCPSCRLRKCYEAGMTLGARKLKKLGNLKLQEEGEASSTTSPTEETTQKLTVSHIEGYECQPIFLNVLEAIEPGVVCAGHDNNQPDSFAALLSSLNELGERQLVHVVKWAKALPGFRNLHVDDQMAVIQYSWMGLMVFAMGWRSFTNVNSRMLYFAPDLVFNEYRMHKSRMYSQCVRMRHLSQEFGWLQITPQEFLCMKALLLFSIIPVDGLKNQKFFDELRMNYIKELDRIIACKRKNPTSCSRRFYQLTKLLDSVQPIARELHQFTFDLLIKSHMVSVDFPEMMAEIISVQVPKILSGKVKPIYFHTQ
The data set can be described thus: Nuclear hormone receptor functional modulation assay (ARE-luciferase, HEK293), AR. It counts as cell-based. The text has this: The solvents, reagents, and ligands employed in the functional assay are readily available from commercial sources, or can be prepared by one of ordinary skill in the art.
Human embryonic kidney HEK293 cells are transfected with steroid hormone receptor and reporter gene plasmids using Fugene™ (Roche Diganostics) transfection reagent. Briefly, the reporter plasmid containing two copies of probasin ARE (androgen response element 5′GGTTCTTGGAGTACT3′ (SEQ ID NO:1)) and TK(thymidine kinase) promoter upstream of the luciferase reporter cDNA, is transfected into HEK293 cells with a plasmid constitutively expressing human androgen receptor (AR) using viral CMV(cytomegalovirus) promoter. The reporter plasmid containing two copies of GRE (glucocorticoid response element 5′TGTACAGGATGTTCT′3 (SEQ ID NO:2)) and TK promoter upstream of the luciferase reporter cDNA is transfected with a plasmid constitutively expressing either human glucocorticoid receptor (GR), human mineralocorticoid receptor (MR), or human progesterone receptor (PR) using viral CMV promoter. Cells are transfected in T150 cm flasks in DMEM media with 5% charcoal-stripped Fetal Bovine Serum (FBS). […] In the antagonist mode for the assays, low concentrations of agonist for each respective receptor are added to the media (0.25 nM dexamethasone for GR, 0.3 nM of methyltrienolone for AR, 0.05 nM of promegestone for PR and 0.05 nM aldosterone for MR), and the ability of test compound to antagonize the agonist response is determined. After 24 hours of incubation with test compounds, cells are lysed and luciferase activity is determined using standard techniques.
Data are fitted to a four parameter-fit logistic curve fit to determine EC50 values. […] IC50 values may be determined similarly using antagonist mode assay data. Percent inhibitions may also be determined relative to the response in the presence of agonist alone, as described above.

pEC50: −log10 of the molar value. Where only a bound is given, the exact number is not on record here.

As a reminder, the pEC50 is the EC50 on a negative log10 scale, so that one unit is a factor of ten. Read a high pEC50 as a small EC50. `CC/C(=C1\c2ccc(Cl)cc2OCc2ncccc21)c1cccc(NS(C)(=O)=O)c1` [Compound (I), (E)-N-{3-[1-(8-Chloro-11H-10-oxa-1-aza-dibenzo[a,d]cyclohepten-5-ylidene)-propyl]-phenyl}-methanesulfonamide]: in data set [1], the bioavailability entry is given as “good” and the plasma exposure entry is on record as “good”. Besides, the negative logarithm of the EC50 (pEC50) in data set [2] (agonist mode, activating transcription) was under 5.00. In addition, the “modulation of gene expression mediated by AR” value in data set [2] (functional modulation, in words) is “only limited activity”. Besides, the “AR % Eff.” value in data set [2] (percent efficacy at 10 μM relative to 100 nM methyltrienolone, mean of 3) is 2.4%.
